Experimental findings from patent publication US20240425512A1, “NITROGEN-CONTAINING HETEROCYCLIC COMPOUND, PHARMACEUTICAL COMPOSITION THEREOF AND APPLICATION THEREOF” (280 Bio, Inc., priority 2023, published 2024) are described below.

Read-outs that look alike come from different tables or passages of the source. Where only a bound is given, the exact number is not on record here.

For data set [1], the system named is NCI-H441 lung cancer cell with KRAS G12V mutation. The data set can be described thus: Proliferation inhibition on RAS cell lines measured by CTG, NCI-H441. The class given is cell-based. Conditions: Homo sapiens, NCI-H441, 144 h, NCI-H441 cells, incubated for 6 days. From the text:
(§1) NCI-H358 is a human non-small cell lung cancer cell line with KRAS G12C mutation; AGS is a gastric cancer cell line with KRAS G12D mutation; SW620 is a colon cancer cell with KRAS G12V mutation; NCI-H460 is a non-small cell lung cancer cell with KRAS Q61H mutation; MKN1 is a wild-type gastric cancer cell with KRAS-amplified; LS513 is a colon cancer cell with KRAS G12D mutation; LoVo is a colon cancer cell with KRAS G13D mutation; NCI-H441 is a lung cancer cell with KRAS G12V mutation, and Capan-2 is a pancreatic cancer cell with KRAS G12V mutation.
(§2) The proliferation inhibitory effect of the compounds on various mutations was evaluated by determining the proliferation inhibitory activity of the compounds on these cell lines.
(§3) The assay was conducted on either 384-well plates or 96-well plates. The procedures are as follows:
(§4) The cell suspensions were added to 384- or 96-well plates (384-well plate: 50 μL; 96-well plate: 100 μL) except for peripheral wells. The plates were placed in a carbon dioxide incubator overnight. NCI-H358, AGS, NCI-H460, MKN-1, LS513, LoVo, and NCI-H441 were placed in a 5%, 370 carbon dioxide incubator overnight, and SW620 was placed in a 0%, 370 carbon dioxide incubator overnight. The HPD300 micro-dosing instrument was used to add the corresponding concentration of compound to each well (9-10 concentration gradients of compound were obtained by 3-fold dilution). Cell plates were incubated in a carbon dioxide incubator for 5-6 days. NCI-H358, AGS, NCI-H460 and MKN-1 were incubated at 5%, 37° incubator and SW620 was incubated at 0%, 370 incubator. On the day of plate measurement, the 384- or 96-well plates were first equilibrated at room temperature for 10-30 min, then CellTiter Glo reagent (384-well plate: 25 μL; 96-well plate: 100 μL) was added to the 384- or 96-well plate, shaken for 10 min away from light, and incubated for 10 min. The plates were placed into Victor NIVO or ENVIDION reader plates, and XLFit was utilized to plot the pharmacodynamic inhibition curve and calculate the IC50 value. “IC50>10 μM” is denoted by “*”, “10 μM≥IC50≥1 μM” is denoted by “**”, and “1 μM≥IC50>100 nM” is denoted by “***”, “IC50<100 nM” is denoted by “****”

Data set [2] relates to MKN1 wild-type gastric cancer cell with KRAS-amplified. The experiment in a line: Proliferation inhibition on RAS cell lines measured by CTG, MKN1. The class given is cell-based. Conditions: Homo sapiens, MKN-1, 144 h; Table 1; MKN1 cells, incubated for 6 days, CellTiter Glo; read-out: IC50 (MKN1 ^e).
Description: as §1, §2, §3, §4
On the technique in general: In ATP-based viability assays light output follows the ATP content of the culture.

Data set [3] relates to NCI-H358 human non-small cell lung cancer cell line with KRAS G12C mutation. The data set can be described thus: Proliferation inhibition on RAS cell lines measured by CTG, NCI-H358. The class given is cell-based. Conditions: Homo sapiens, 144 h; Table 1; NCI-H358 cells, incubated for 6 days, CellTiter Glo; read-out: IC50 (H358 ^b).
Description: as §1, §2, §3, §4

Data set [4] is described as follows: Pharmacokinetic study in mice after intravenous administration. The class given is in vivo. As to conditions: mouse, 5 mg/kg, male C57BL/6J mice, plasma. Here is the method: (§5) After intravenous and oral administration in male C57BL/6J mice (6-8 weeks), plasma samples were collected through the orbital venous plexus at 8 time points (5 min, 15 min, 30 min, 1 h, 2 h, 4 h, 7 h, 24 h), and the collected blood samples were transferred to microcentrifuge tubes containing EDTA-K2 anticoagulant, and centrifuged at 4° C., 4,000 g. After 5 min, the supernatant was taken and stored in a refrigerator at −75° C. ±15° C. LC-MS/MS was used to detect the concentrations of the compounds in the plasma at different time points, and the relevant pharmacokinetic parameters […] were calculated using WinNonlin software.

Data set [5] in a line: Pharmacokinetic study in mice after oral administration. As to conditions: mouse, 30 mg/kg, male C57BL/6J mice, plasma. The class given is in vivo. Here is the method: as §5
Data set [6] relates to SW620 colon cancer cell with KRAS G12V mutation. The data set can be described thus: Proliferation inhibition on RAS cell lines measured by CTG, SW620. The class given is cell-based. Conditions: Homo sapiens, SW-620, 144 h; Table 1; SW620 cells, incubated for 6 days, CellTiter Glo; read-out: IC50 (SW620 ^c).
Description: as §1, §2, §3, §4

Data set [7] concerns LS513 colon cancer cell with KRAS G12D mutation. The experiment in a line: Proliferation inhibition on RAS cell lines measured by CTG, LS513. The class given is cell-based. Conditions: Homo sapiens, LS-513, 144 h, LS513 cells, incubated for 6 days, read-out: IC50 (LS513^f). Summed up: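 Cells were seeded overnight in a 5% CO2 incubator. Compound was added as 9-10 point, 3-fold dilutions and incubated 5-6 days, with NCI-H460 and AGS stated at 5% CO2, 37°. Viability was read by CellTiter-Glo luminescence, and IC50 was taken from the inhibition curve.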

Data set [8] deals with NCI-H460 non-small cell lung cancer cell with KRAS Q61H mutation. The experiment in a line: Proliferation inhibition on RAS cell lines measured by CTG, NCI-H460. The class given is cell-based. Conditions: Homo sapiens, 144 h; Table 1; NCI-H460 cells, incubated for 6 days, CellTiter Glo; read-out: IC50 (NCI-H460 ^d).
Description: as §1, §2, §3, §4

Data set [9] concerns LoVo colon cancer cell with KRAS G13D mutation. The experiment in a line: Proliferation inhibition on RAS cell lines measured by CTG, LoVo. As to conditions: Homo sapiens, LoVo, 144 h, LoVo cells, incubated for 6 days, read-out: IC50 (LoVo^g). The class given is cell-based.
Description: as §1, §2, §3, §4

Data set [10] concerns AGS gastric cancer cell line with KRAS G12D mutation. The experiment in a line: Proliferation inhibition on RAS cell lines measured by CTG (CellTiter Glo), AGS. The class given is cell-based. Conditions: Homo sapiens, 120 h, Table 1, AGS cells, incubated for 5 days.
Description: as §1, §2, §3, §4

Take `C#Cc1c(F)ccc2cc(O)cc(-c3ncc4c(N5CCCCCN5)nc(OC[C@@]56CCCN5C[C@H](F)C6)nc4c3F)c12` [Compound 4]: the IC50 (in general, the point on the concentration scale where inhibition reaches its midpoint) is 3.6 nM in [1] (Table 1, numeric value); less than 100 nM in [1] (Table 1, CellTiter Glo); less than 100 nM in data set [2]; less than 100 nM in data set [3]; less than 100 nM in [6]; 3.6 nM in [7] (Table 1, numeric value). The IC50 is less than 100 nM in data set [7] (Table 1, CellTiter Glo); 100 to 1000 nM in data set [8]; 7.8 nM in [9] (Table 1, numeric value); less than 100 nM in data set [9] (Table 1, CellTiter Glo); less than 100 nM in [10]. Further, the AUC(0-inf) (in general, the area under the concentration-time curve extrapolated to infinity) was 24300 ng·h/mL in [4] and 10400 ng·h/mL in data set [5]. For the same molecule, the AUC(0-t) (usually the area under the concentration-time curve up to a stated or last time point) in [4] is 24300 ng·h/mL; in data set [5] it was 10400 ng·h/mL. In data set [4], the C0 is 96100 ng/mL. Further, in data set [4], the clearance (commonly the rate of elimination divided by the concentration) amounted to 3.43 mL/min/kg. The half-life (usually how long it takes for the measured level to halve) in data set [4] (5% DMSO + 10% Solutol HS15 + 85% (20% HP-β-CD in water)) is 2.63 h; in [5] (0.1% Tween 80 + 0.5% MC in water), 1.89 h. The Vd in [4] (read-out: Vss) is 0.205 L/kg. In data set [5], the peak level (Cmax) was 2290 ng/mL. In addition, the Tmax – broadly, the time from dosing to the highest level – in [5] was 4 h.
